15 compounds from ChEMBL document CHEMBL4392877, “Cytotoxic Pregnane Steroidal Glycosides from Chonemorpha megacalyx” (J Nat Prod, 2019) can be followed below.

In one test the test system is A549. Nature of the test: Antiproliferative activity against human A549 cells measured after 48 hrs by MTT assay. Conditions: A549, 48 h. The class given is functional, cell-based. (Formazan colour is commonly taken as a measure of viable cells.)
A further test has as its system HepG2. The test is described as follows: Antiproliferative activity against human HepG2 cells measured after 48 hrs by MTT assay. The class given is functional, cell-based. Conditions: HepG2, 48 h.
Another test has as its system PC-3. The test is described as follows: Antiproliferative activity against human PC3 cells measured after 48 hrs by MTT assay. The class given is functional, cell-based. Conditions: PC-3, 48 h.
Another test relates to WI-38. The test is described as follows: Cytotoxicity activity against human WI38 cells measured after 48 hrs by MTT assay. The class given is cell-based. Conditions: WI-38, 48 h.

SMILES strings stand for the structures. A value given as a limit tells only on which side of the number the result lay.

On to `CO[C@H]1C[C@H](O[C@H]2CC[C@@]3(C)[C@@H](CC[C@H]4C5=CC(=O)[C@@H]6[C@@H](C)OC(=O)[C@]56CC[C@@H]43)C2)O[C@H](C)[C@H]1O`, for which the IC50 with A549, with HepG2, with PC-3 and in the test on WI-38 was greater than 50 µM each time.
For the compound `C[C@H]1OC(=O)[C@]23CC[C@@H]4[C@@]5(C)CC[C@H](O)CC5=CC[C@@]4(O)[C@@]2(O)CC[C@H]13`, the IC50 in the test on A549, in the test on HepG2, in the test on PC-3 and in the test on WI-38 was greater than 50 µM throughout.
Take `C[C@H]1OC(=O)[C@]23CC[C@H]4[C@@H](CC[C@H]5C[C@@H](O)CC[C@@]54C)[C@@]2(O)CC[C@H]13`: the IC50 in the test with A549, with HepG2, in the test on PC-3 and in the test on WI-38 was greater than 50 µM each time.
With `CO[C@H]1C[C@@H](O[C@H]2[C@@H](O)C[C@H](O[C@H]3CC[C@@]4(C)[C@@H](CC[C@H]5C6=CC(=O)[C@@H]7[C@@H](C)OC(=O)[C@]67CC[C@@H]54)C3)O[C@@H]2C)O[C@H](C)[C@H]1O`, the IC50 with A549, with HepG2, in the test with PC-3 and in the test on WI-38 was greater than 50 µM throughout.
As to `CO[C@H]1C[C@H](O[C@H]2CC[C@@]3(C)C(=CC[C@H]4C5=CC(=O)[C@@H]6[C@@H](C)OC(=O)[C@]56CC[C@@H]43)C2)O[C@H](C)[C@H]1O[C@@H]1C[C@@H](OC)[C@H](O)[C@@H](C)O1`, the IC50 (as a rule, the concentration needed to halve the response being measured) in the test on A549 was 2.4 µM; with HepG2, 2 µM; in the test with PC-3, 3.6 µM; with WI-38, 5.5 µM.
For `C[C@H]1OC(=O)[C@]23CC[C@H]4[C@@H](C(C=O)=C5C[C@@H](O)CC[C@@]54C)[C@@]2(O)CC[C@H]13`, the IC50 with A549, in the test with HepG2, in the test on PC-3 and with WI-38 was greater than 50 µM in each case.
In the case of `CO[C@H]1C[C@@H](O[C@@H]2[C@H](O)C[C@H](O[C@H]3CC[C@@]4(C)C(=CC[C@H]5C6=CC(=O)[C@@H]7[C@@H](C)OC(=O)[C@]67CC[C@@H]54)C3)O[C@@H]2C)O[C@H](C)[C@H]1O`, the IC50 in the test on A549, in the test with HepG2, in the test on PC-3 and in the test with WI-38 was greater than 50 µM throughout.
As to `CO[C@H]1C[C@H](O[C@H]2CC[C@@]3(C)C(=CC[C@@H]4[C@@H]3CC[C@]35C(=O)O[C@H](C)[C@H]3CC[C@]45O)C2)O[C@H](C)[C@H]1O[C@@H]1C[C@H](OC)[C@H](O[C@@H]2C[C@@H](OC)[C@H](O)[C@@H](C)O2)[C@@H](C)O1`, the IC50 in the test with A549, in the test with HepG2, in the test on PC-3 and in the test on WI-38 was greater than 50 µM throughout.
`C[C@H]1O[C@@H](O[C@H]2CC[C@@]3(C)[C@@H](CC[C@H]4C5=CC(=O)[C@@H]6[C@@H](C)OC(=O)[C@]56CC[C@@H]43)C2)C[C@H](O)[C@@H]1O`: the IC50 in the test on A549, in the test with HepG2, in the test with PC-3 and in the test with WI-38 was greater than 50 µM each time.
For the compound `C[C@H]1O[C@@H](O[C@H]2CC[C@@]3(C)C(=CC[C@H]4C5=CC(=O)[C@@H]6[C@@H](C)OC(=O)[C@]56CC[C@@H]43)C2)C[C@H](O)[C@@H]1O`, the IC50 in the test with A549, in the test with HepG2, in the test with PC-3 and with WI-38 was greater than 50 µM throughout.
In the case of `CO[C@H]1C[C@H](O[C@H]2CC[C@@]3(C)C(=C(C=O)[C@@H]4[C@@H]3CC[C@]35C(=O)O[C@H](C)[C@H]3CC[C@]45O)C2)O[C@H](C)[C@H]1O`, the 50% inhibitory concentration (IC50) in the test with A549, with HepG2, with PC-3 and in the test with WI-38 was greater than 50 µM in each case.
For the compound `CO[C@H]1C[C@H](O[C@H]2CC[C@@]3(C)[C@@H](CC[C@H]4C5=CC(=O)[C@@H]6[C@@H](C)OC(=O)[C@]56CC[C@@H]43)C2)O[C@H](C)[C@H]1O[C@H]1C[C@@H](OC)[C@H](O)[C@@H](C)O1`, the IC50 in the test with A549, in the test with HepG2, in the test with PC-3 and with WI-38 was greater than 50 µM throughout.
Consider `CO[C@H]1C[C@@H](O[C@H]2[C@@H](O)C[C@H](O[C@H]3CC[C@@]4(C)C(=CC[C@@H]5[C@@H]4CC[C@]46C(=O)O[C@H](C)[C@H]4CC[C@]56O)C3)O[C@@H]2C)O[C@H](C)[C@H]1O`, for which the IC50 in the test with A549, in the test with HepG2, with PC-3 and in the test on WI-38 was greater than 50 µM each time.
Regarding `CO[C@H]1C[C@@H](O[C@H]2[C@@H](OC)C[C@H](O[C@H]3CC[C@@]4(C)C(=CC[C@@H]5[C@@H]4CC[C@]46C(=O)O[C@H](C)[C@H]4CC[C@]56O)C3)O[C@@H]2C)O[C@H](C)[C@H]1O`, the IC50 with A549, with HepG2, in the test on PC-3 and in the test with WI-38 was greater than 50 µM throughout.
For the compound `COc1cccc2c1C(=O)c1c(O)c3c(c(O)c1C2=O)C[C@@](O)(C(=O)CO)C[C@@H]3O[C@H]1C[C@H](N)[C@H](O)[C@H](C)O1` [DOXORUBICIN], the IC50 in the test on A549, in the test on HepG2 and in the test on PC-3 was 0.5 to 0.8 µM throughout.
